Consider one compound from ChEMBL document CHEMBL3525961, “Identification of human UDP-glucuronosyltransferases involved in N-carbamoyl glucuronidation of lorcaserin” (Drug Metab Dispos, 2012).

In series [1] the test system is Liver microsome. In words: Drug metabolism in human liver microsomes assessed as N-carbamoyl glucuronide formation at 100 uM in presence of 5 uM mefenamic acid. It counts as ADME.
For series [2], the system named is Liver microsome. In words: Drug metabolism in human liver microsomes assessed as N-carbamoyl glucuronide formation. Format: ADME.
For series [3], the target named is T1, UDP-glucuronosyltransferase 2B7 (Homo sapiens, UniProt P16662).
T1 sequence (P16662 whole entry): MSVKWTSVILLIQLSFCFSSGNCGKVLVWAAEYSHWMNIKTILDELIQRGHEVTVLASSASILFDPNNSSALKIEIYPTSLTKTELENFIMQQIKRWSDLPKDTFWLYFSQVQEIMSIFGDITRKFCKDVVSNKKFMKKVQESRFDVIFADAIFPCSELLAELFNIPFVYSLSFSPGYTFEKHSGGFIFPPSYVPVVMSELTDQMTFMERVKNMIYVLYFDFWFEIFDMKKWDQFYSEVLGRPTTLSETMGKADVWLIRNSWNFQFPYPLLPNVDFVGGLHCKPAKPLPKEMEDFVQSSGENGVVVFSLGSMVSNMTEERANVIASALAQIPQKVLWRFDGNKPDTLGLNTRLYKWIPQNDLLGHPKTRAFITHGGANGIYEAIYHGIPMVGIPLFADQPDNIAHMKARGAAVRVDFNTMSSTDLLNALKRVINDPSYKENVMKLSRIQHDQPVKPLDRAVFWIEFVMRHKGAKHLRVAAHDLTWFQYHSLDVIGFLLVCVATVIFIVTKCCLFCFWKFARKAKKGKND
In words: Activity of human recombinant UGT2B7 expressed in insect cells assessed as intrinsic clearance for enzyme-mediated N-carbamoyl glucuronide formation. It counts as ADME.

Series [4] concerns Liver microsome. In words: Drug metabolism in human liver microsomes assessed as N-carbamoyl glucuronide formation at 100 uM in presence of 20 uM eugenol. Format: ADME. On the technique in general: Liver microsomes are a subcellular fraction often used to study metabolism.
In series [5] the test system is Liver microsome. In words: Drug metabolism in human liver microsomes assessed as 100 uM eugenol-mediated inhibition of N-carbamoyl glucuronide formation at 1 uM. Format: ADME.
Series [6] deals with T2, UDP-glucuronosyltransferase 1A9 (Homo sapiens, UniProt O60656).
T2 sequence (O60656 whole entry): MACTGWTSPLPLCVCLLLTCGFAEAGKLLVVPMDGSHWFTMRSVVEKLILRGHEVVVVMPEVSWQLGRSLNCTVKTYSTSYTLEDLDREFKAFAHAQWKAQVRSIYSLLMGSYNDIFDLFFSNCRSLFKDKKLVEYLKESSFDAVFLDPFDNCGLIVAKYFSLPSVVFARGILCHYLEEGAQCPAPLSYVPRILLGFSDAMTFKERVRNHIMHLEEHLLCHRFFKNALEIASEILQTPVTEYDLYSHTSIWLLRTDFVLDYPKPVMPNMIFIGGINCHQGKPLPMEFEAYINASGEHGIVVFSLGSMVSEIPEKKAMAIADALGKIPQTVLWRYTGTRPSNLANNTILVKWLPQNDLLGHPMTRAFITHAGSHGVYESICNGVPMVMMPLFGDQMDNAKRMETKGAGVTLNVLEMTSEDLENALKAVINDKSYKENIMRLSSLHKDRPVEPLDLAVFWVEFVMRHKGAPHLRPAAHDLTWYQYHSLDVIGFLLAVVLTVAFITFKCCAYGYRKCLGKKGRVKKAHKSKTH
In words: Activity of human recombinant UGT1A9 expressed in insect cells assessed as intrinsic clearance for enzyme-mediated N-carbamoyl glucuronide formation. It counts as ADME.

In a further series the test system is Liver. In words: Drug metabolism in human liver assessed as N-carbamoyl glucuronide formation per mg protein at 100 uM. Format: ADME, tissue-based.
Series [7] can be described thus: Drug metabolism in smoking human lung assessed as N-carbamoyl glucuronide formation per mg protein at 100 uM. It counts as ADME, tissue-based.
A short description of series [8]: Drug metabolism in non-smoking human lung assessed as N-carbamoyl glucuronide formation per mg protein at 100 uM. Format: ADME, tissue-based.
Series [9] is described as follows: Drug metabolism in human kidney assessed as N-carbamoyl glucuronide formation per mg protein at 100 uM. Format: ADME, tissue-based.
Series [10] concerns Liver microsome. In words: Drug metabolism in human liver microsomes assessed as 100 uM eugenol-mediated inhibition of N-carbamoyl glucuronide formation at 100 uM. Format: ADME.
Series [11] deals with T3, UDP-glucuronosyltransferase 2B15 (Homo sapiens, UniProt P54855).
T3 sequence (P54855 whole entry): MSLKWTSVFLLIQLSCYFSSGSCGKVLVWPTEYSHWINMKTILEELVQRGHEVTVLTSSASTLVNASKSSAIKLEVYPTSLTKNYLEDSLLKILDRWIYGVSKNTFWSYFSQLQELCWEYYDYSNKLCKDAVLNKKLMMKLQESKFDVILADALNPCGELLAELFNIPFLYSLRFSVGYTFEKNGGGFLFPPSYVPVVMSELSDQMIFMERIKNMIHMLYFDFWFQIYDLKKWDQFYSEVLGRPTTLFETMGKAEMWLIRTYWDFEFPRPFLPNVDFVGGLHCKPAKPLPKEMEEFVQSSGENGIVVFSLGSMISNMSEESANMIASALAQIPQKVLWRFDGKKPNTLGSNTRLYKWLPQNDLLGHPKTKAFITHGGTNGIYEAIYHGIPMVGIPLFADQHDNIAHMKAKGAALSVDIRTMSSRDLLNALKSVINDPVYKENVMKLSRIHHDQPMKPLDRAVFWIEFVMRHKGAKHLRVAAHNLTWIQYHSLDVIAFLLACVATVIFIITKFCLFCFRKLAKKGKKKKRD
In words: Activity of human recombinant UGT2B15 expressed in insect cells assessed as intrinsic clearance for enzyme-mediated N-carbamoyl glucuronide formation. Format: ADME.

A short description of series [12]: Drug metabolism in human intestine assessed as N-carbamoyl glucuronide formation per mg protein at 100 uM. Format: ADME, tissue-based.
In series [13] the test system is Liver microsome. In words: Drug metabolism in human liver microsomes assessed as N-carbamoyl glucuronide formation per mg protein. It counts as ADME.
Series [14] concerns Liver microsome. In words: Drug metabolism in human liver microsomes assessed as N-carbamoyl glucuronide formation at 100 uM in presence of 5 uM bisphenol. It counts as ADME.
Series [15] has as its system Liver microsome. In words: Drug metabolism in human liver microsomes assessed as 25 uM bisphenol-mediated inhibition of N-carbamoyl glucuronide formation at 100 uM. It counts as ADME.
In series [16] the target is T4, UDP-glucuronosyltransferase 1A6 (Homo sapiens, UniProt P19224).
T4 sequence (P19224 whole entry): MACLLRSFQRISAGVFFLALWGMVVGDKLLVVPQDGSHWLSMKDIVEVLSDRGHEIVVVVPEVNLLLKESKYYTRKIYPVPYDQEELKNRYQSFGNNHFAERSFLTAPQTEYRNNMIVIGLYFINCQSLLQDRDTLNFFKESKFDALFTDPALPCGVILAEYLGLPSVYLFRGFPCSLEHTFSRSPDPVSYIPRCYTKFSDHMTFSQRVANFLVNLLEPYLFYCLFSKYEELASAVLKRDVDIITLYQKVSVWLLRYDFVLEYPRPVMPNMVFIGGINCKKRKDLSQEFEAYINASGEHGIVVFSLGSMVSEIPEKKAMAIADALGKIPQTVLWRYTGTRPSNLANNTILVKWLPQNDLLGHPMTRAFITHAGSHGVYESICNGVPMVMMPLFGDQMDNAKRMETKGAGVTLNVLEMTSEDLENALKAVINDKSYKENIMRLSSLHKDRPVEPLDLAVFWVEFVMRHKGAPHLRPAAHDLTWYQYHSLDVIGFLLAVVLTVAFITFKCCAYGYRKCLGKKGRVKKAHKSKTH
In words: Activity of human recombinant UGT1A6 expressed in insect cells assessed as intrinsic clearance for enzyme-mediated N-carbamoyl glucuronide formation. Format: ADME.

Series [17] deals with T3, UDP-glucuronosyltransferase 2B15. In words: Activity of human recombinant UGT2B15 expressed in insect cells assessed as intrinsic clearance for enzyme-mediated N-carbamoyl glucuronide formation per mg protein. Format: ADME.
Series [18] concerns the target T5, UDP-glucuronosyltransferase 2B17 (Homo sapiens, UniProt O75795).
T5 sequence (O75795 whole entry): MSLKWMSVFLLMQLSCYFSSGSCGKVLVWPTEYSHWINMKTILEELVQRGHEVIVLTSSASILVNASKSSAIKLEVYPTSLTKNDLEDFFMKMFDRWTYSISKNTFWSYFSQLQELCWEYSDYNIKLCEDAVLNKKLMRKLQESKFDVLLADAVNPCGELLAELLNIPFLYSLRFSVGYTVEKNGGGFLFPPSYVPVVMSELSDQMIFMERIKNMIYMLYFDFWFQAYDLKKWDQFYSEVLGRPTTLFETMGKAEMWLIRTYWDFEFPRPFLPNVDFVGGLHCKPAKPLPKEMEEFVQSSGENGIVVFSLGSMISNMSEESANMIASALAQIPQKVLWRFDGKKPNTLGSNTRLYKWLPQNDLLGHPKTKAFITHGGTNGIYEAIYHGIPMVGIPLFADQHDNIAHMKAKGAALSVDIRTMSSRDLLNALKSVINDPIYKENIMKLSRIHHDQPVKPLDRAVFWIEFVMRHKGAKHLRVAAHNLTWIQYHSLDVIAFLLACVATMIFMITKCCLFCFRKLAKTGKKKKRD
In words: Activity of human recombinant UGT2B17 expressed in insect cells assessed as intrinsic clearance for enzyme-mediated N-carbamoyl glucuronide formation per mg protein. It counts as ADME.

In series [19] the target is T1, UDP-glucuronosyltransferase 2B7. In words: Activity of human recombinant UGT2B7 expressed in insect cells assessed as intrinsic clearance for enzyme-mediated N-carbamoyl glucuronide formation per mg protein. It counts as ADME.
Series [20] deals with T2, UDP-glucuronosyltransferase 1A9. In words: Activity of human recombinant UGT1A9 expressed in insect cells assessed as intrinsic clearance for enzyme-mediated N-carbamoyl glucuronide formation per mg protein. Format: ADME.
Series [21] has as its target T5, UDP-glucuronosyltransferase 2B17. In words: Activity of human recombinant UGT2B17 expressed in insect cells assessed as intrinsic clearance for enzyme-mediated N-carbamoyl glucuronide formation. It counts as ADME.
The test system of series [22] is Liver microsome. In words: Drug metabolism in human liver microsomes assessed as intrinsic clearance for N-carbamoyl glucuronide formation per mg protein. Format: ADME.

The Km is the substrate concentration at which the rate is half of its maximum. By Vmax is commonly meant the rate approached at saturating substrate. With `C[C@H]1CNCCc2ccc(Cl)cc21.Cl.O`, the Drug metabolism entry is “metabolite_detected” with Liver microsome [1]; “metabolite_detected” in series [3]; “metabolite_detected” with Liver microsome [4]; “metabolite_detected” in series [6]; 1028 pmol/min with Liver; 1.116 pmol/min in series [7]. Moreover, the Drug metabolism in [8] is 0.493 pmol/min; in series [9] it was 185.9 pmol/min; in series [11], “metabolite_detected”; in series [12], 133.1 pmol/min; in the series with Liver microsome [14], “metabolite_detected”; in series [16] it was “metabolite_detected”. In addition, the Drug metabolism entry in series [21] was “metabolite_detected”. Besides, the Km in the series with Liver microsome [2] is 128 µM. Also, the figures for the “inhibition (INH)” value with Liver microsome [5], with Liver microsome [10] and with Liver microsome [15] were 18%, 11% and 30%, respectively. In addition, the Vmax with Liver microsome [13] came to 2379.2 pmol/min. Further, the CL in series [17] came to 4.601 µL/min/g; in series [18], 0.611 µL/min/g; in [19] it was 1.987 µL/min/g; in series [20], 0.199 µL/min/g. In addition, the CLH with Liver microsome [22] stood at 18.57 µL/min/g.
